Source: ChEMBL document CHEMBL3044770, “Studies on toxicity of antitubercular drugs namely isoniazid, rifampicin, and pyrazinamide in an in vitro model of HepG2 cell line” (Med Chem Res, 2011)

Columns and labels:
Assay type in all cases: cell-based
[1] = Toxicity in Homo sapiens (human) HepG2 cells assessed as cell viability at 25 uM after 24 hr by MTT assay; settings: read-out: Activity
[2] = Toxicity in Homo sapiens (human) HepG2 cells assessed as cell viability at 100 uM after 24 hr by MTT assay; settings: read-out: Activity
[3] = Toxicity in Homo sapiens (human) HepG2 cells assessed as cell viability at 50 uM after 24 hr by MTT assay; settings: read-out: Activity
HepG2 = test: Toxicity in Homo sapiens (human) HepG2 cells assessed as change in cell morphology at 1 mM after 24 hr by phase contrast microscopic analysis; settings: hepg2, 24 h, 1000 µM
[4] = Toxicity in Homo sapiens (human) HepG2 cells assessed as cell viability at 10 mM after 24 hr by MTT assay; settings: read-out: Activity
[5] = Toxicity in Homo sapiens (human) HepG2 cells assessed as cell viability at 1 mM after 24 hr by MTT assay; settings: read-out: Activity
[6] = Toxicity in Homo sapiens (human) HepG2 cells assessed as cell viability at 5 mM after 24 hr by MTT assay; settings: read-out: Activity
[7] = Toxicity in isoniazid pretreated Homo sapiens (human) HepG2 cells assessed as cell viability at 200 mM after 24 hr by MTT assay; settings: HepG2 cells pretreated with isoniazid, read-out: Activity
[8] = Toxicity in Homo sapiens (human) HepG2 cells assessed as cell viability at 50 mM after 24 hr by MTT assay; settings: read-out: Activity
[9] = Toxicity in pyrazinamide pretreated Homo sapiens (human) HepG2 cells assessed as cell viability at 200 mM after 24 hr by MTT assay; settings: HepG2 cells pretreated with pyrazinamide, read-out: Activity

Compound | viability at 24 h, 25 µM [1] | viability at 24 h, 100 µM [2] | viability at 24 h, 50 µM [3] | Activity (HepG2) | viability at 24 h, 10000 µM [4] | viability at 24 h, 1000 µM [5] | viability at 24 h, 5000 µM [6] | viability at 24 h, 200000 µM [7] | viability at 24 h, 50000 µM [8] | viability at 24 h, 200000 µM [9]
CO[C@H]1/C=C/O[C@@]2(C)Oc3c(C)c(O)c4c(O)c(c(/C=N/N5CCN(C)CC5)c(O)c4c3C2=O)NC(=O)/C(C)=C\C=C\[C@H](C)[C@H](O)[C@@H](C)[C@@H](O)[C@@H](C)[C@H](OC(C)=O)[C@@H]1C [RIFAMPIN] | 115% | 192% | 116% | – | – | – | – | – | – | –
NC(=O)c1cnccn1 [PYRAZINAMIDE] | – | – | – | Non-toxic | 104% | 87.7% | 102% | 60.1% | 102% | –
NNC(=O)c1ccncc1 [ISONIAZID] | – | – | – | Non-toxic | 129% | 125% | 99.7% | – | 91.3% | 56.1%
